# Values of other authors in publication PMC7123690 (HCV: The Journey from Discovery to a Cure, 2018).
# Like-named read-outs stand apart in the source and are kept apart here.
# Key:
# [1] = tested on: isolated rabbit hearts; conditions: for effects on HR and SNRT: 60 min perfusion
# [2] = tested on: GT-1 HCV; conditions: 120 mg dose, 12-h post-dose, GT-1 HCV patients
# [3] = tested on: cardiac ion channel and receptor screens
# [4] = tested on: bovine viral diarrhea virus
# [5] = rat
# [6] = dog
# [7] = not given; remark: listed apart in the source
# [8] = not given; remark: listed apart in the source
# [9] = tested on: HIV-1
# [10] = dog; remark: listed apart in the source
# [11] = tested on: HCV GT-1b replicon; conditions: read-out: EC50 GT-1b replicon
# [12] = tested on: canine parainfluenza virus
# [13] = anesthetized rabbits
# [14] = tested on: CYP 2C19; conditions: recombinant CYP 2C19
# [15] = tested on: individual recombinant CYP enzymes
# [16] = not given; remark: listed apart in the source
# [17] = not given; remark: listed apart in the source
# [18] = dog LM
# [19] = RLM
# [20] = tested on: GT-1 and GT-4 replication; conditions: GT-1 and GT-4 replicons
# [21] = tested on: HCV; conditions: combined with IFN-α, ribavirin (52), 2 and 3
# [22] = biological target: HCV NS3/4A GT-1a enzyme; conditions: read-out: IC50 GT-1a enzyme
# [23] = tested on: CYP 2D6; conditions: recombinant CYP 2D6
# [24] = tested on: CYP 2C9; conditions: recombinant CYP 2C9
# [25] = tested on: CYP 1A2; conditions: recombinant CYP 1A2
# [26] = tested on: CYP 3A4
# [27] = rat, dog, and cynomolgus monkey plasma
# [28] = P-gp knockout mice
# [29] = HLM
# [30] = tested on: HCV GT-1; conditions: HCV GT-1 patients
# [31] = cynomolgus monkey LMs
# [32] = 60-min perfusion protocol, 10 μM, similar to vehicle control
smiles,measurement,setting,value
C=C[C@@H]1C[C@]1(NC(=O)[C@@H]1C[C@@H](Oc2nccc3cc(OC)ccc23)CN1C(=O)[C@@H](NC(=O)OC(C)(C)C)C(C)(C)C)C(=O)NS(=O)(=O)C1CC1 [Compound 30],decline in HR,"[1]; 3 μM, ~12 min perfusion",−15 bpm
same,decline in HR,"[1]; 10 μM, ~12 min perfusion",−23 bpm
same,effects on atrioventricular conduction time or QRS interval,[1]; 0.3-10 μM,no effects
same,increase in SNRT,"[1]; 3 and 10 μM, ~12 min perfusion",≥ 425 ms
same,effects on HR and SNRT,[1]; 0.1 μM,absent
same,effects on HR and SNRT,[1]; 0.3 μM,attenuated
same,effects on HR and SNRT,[1]; 1 μM,effects on HR and SNRT were observed
same,% HR change,[1]; perfusion concentration 10 μM,−25%
same,affinity for plasma proteins,human,99.1%
same,mean decline in viral load,[2],1.8 log10 IU/mL
same,outcome of cardiac ion channel and receptor screens,[3],failed to identify a biochemical target
same,activity in cell culture replication assay,[4],inactive
same,oral bioavailability,[5],18%
same,plasma t 1/2,[5],4.4 h
same,plasma level 24-h post-dose,[5]; oral 20 mpk,8 nM
same,oral bioavailability,"[6]; PO, 1 mpk",23%
same,observed cardiovascular effects,"[7]; conscious telemetrized dogs, two 15 mpk doses",a reduction in heart rate and prolongation of the PR interval
same,plasma exposure at which CV effects occurred,[7]; estimated from non-telemeterized animals,approximately 12 μM
same,terminal t 1/2,"[8]; NHVs, single oral doses 10-120 mg",4 to 8 h
same,effects on cardiac function (electrocardiographic changes),"[8]; one NHV and one HCV-infected patient, 120 mg dose","transient mild bradycardia, PR interval prolongation, and junctional rhythm disturbances"
same,activity in cell culture replication assay,[9],inactive
same,affinity for plasma proteins,[10],98.2%
same,EC50,[11],0.012 µM
same,activity in cell culture replication assay,[12],inactive
same,decline in HR,"[13]; IV 1, 3 and 10 mpk each infused over 5 min",32 bpm
same,reduction in blood pressure from baseline,"[13]; not drug related, also seen in vehicle controls",14–23 mmHg
"C=C[C@@H]1C[C@]1(NC(=O)[C@@H]1C[C@@H](Oc2ncc(OC)c3ccc(Cl)cc23)CN1C(=O)[C@@H](NC(=O)OC(C)(C)C)C(C)(C)C)C(=O)NS(=O)(=O)C1CC1 [Compound 1, Asunaprevir]",IC50,[14],> 40 µM
same,metabolic turnover by recombinant CYP enzymes,[15],significant metabolic turnover only by CYP 3A4
same,adverse events (AEs),"[16]; NHVs, single doses 10-1,200 mg oral suspension",generally mild to moderate and comparable to the placebo controls
same,cardiac safety analysis,[16]; short duration SAD study,no evidence of an increased risk of adverse cardiac events
same,permeability in PAMPA,[17]; pH = 5.5,> 473 nm/s
same,permeability in PAMPA,[17]; pH = 7.4,> 492 nm/s
same,turnover in LMs,[18],4.7 pmol/min/mg
same,turnover in LMs,[19],4.9 pmol/min/mg
same,maximal increase in SNRT,[1]; [32],14%
same,maximal reduction of heart rate,[1]; [32],10%
same,% HR change,[1]; perfusion concentration 10 μM,−4%
same,% SNRT change,[1]; perfusion concentration 10 μM,5%
same,EC50,[20],< 0.005 µM
same,activity in combination studies,[21],additive or synergistic activity
same,plasma protein binding,human plasma,98.8%
same,IC50,[22],0.001 µM
same,IC50,[23],> 40 µM
same,IC50,[24],> 40 µM
same,IC50,[25],> 40 µM
same,IC50,"[26]; CYP 3A4, substrate probe 7-benzyloxy-trifluoromethylcoumarin (BFC)",29 µM
same,IC50,"[26]; CYP 3A4, substrate probe benzyloxyresorufin (BZR)",8 µM
same,IC50,"[26]; CYP 3A4, substrate probe midazolam",27 µM
same,direct excretion into the bile,[5],9 % of the dose
same,liver level 24-h post-dose,[5]; oral,15.2 µM
same,direct excretion into the bile,[6],22 % of the dose
same,plasma protein binding,[27],97.2–98.8%
same,oral bioavailability,[28],> 100%
same,turnover in LMs,[29],5.8 ± 1.8
same,mean plasma HCV RNA decline,[30]; single 50 mg dose,0.64 log10 IU/mL
same,mean plasma HCV RNA decline,[30]; single 200 mg dose,2.26 log10 IU/mL
same,mean plasma HCV RNA decline,[30]; single 600 mg dose,2.87 log10 IU/mL
same,turnover in LMs,[31],50 ± 22 pmol/min/mg
same,EC50,[11],0.006 µM
